How the values were obtained:
MSC = test: Reprogramming of MSCs toward neural progenitor spheres (neurosphere production); type: cell-based
Procedure: MSC media contains DMEM F:12, 10% KSR, 5% Glutamax, 5% NNEA, 1% Penicillin/streptomycin. We used 12 well treated plates for production.
MSCs are seeded in culture media and allowed to grow up under serum-free conditions until 80% confluence on adherent conditions using laminin as coat.
At stage 1, fresh media and NSC exosomes (and in two methodologies also we used pluripotent cells to enhance de-differentiation) as a source of linage specific signals, are provided to the cultured MSCs (typically following decitabine treatment), and exposed to NSC exosomes for 1-5 days. Following stage 1, (typically at day 5) stage 2 involves switching out media and NSC exosomes and exposing the cells to the fresh media and NSC exosomes for 5-15 days. After stage 2, (typically at day 15 from the start of stage 1) stage 3 involves switching out media and NSC exosomes with fresh media lacking NSC exosomes and allowing the cells to grow for 5-7 days. After stage 3, (typically at day 20-22 from the start of stage 1), neural progenitor spheres (the primary colonies) are isolated from the culture. After isolation occurs, the neurospheres are picked to keep on suspension for expansion and experimentation. […]

iNSC-MSC = test: Differentiation potential of iNSC-MSC under serum free conditions (immunofluorescence); type: cell-based; conditions: methods using decitabine (method 2 & 4) versus methods without
Description: The resultant cells of the four methods express neural differentiation markers Bill, GFAP and NeuN, especially in the surrounded areas of the spheres. On the other hand, they keep NSC markers Sox2, Sox1 and CD90 on the spheres. […] All nuclei were counterstained with DAPI. Scale bar, 50 μm.

Structure (SMILES): Nc1ncn([C@H]2C[C@H](O)[C@@H](CO)O2)c(=O)n1 [decitabine, 5-aza-2′-deoxycytidine]
- number of primary neurospheres produced (MSC; MSC cultured with NSC exosomes, day 21 of production (FIG. 2B)): enhances the number of spheres produced
- spheres produced (MSC; MSC treated without NSC exosomes): no spheres were found produced
- immunofluorescence intensities for BII tubulin (iNSC-MSC): significant less iimmunofluorescence intensities
